Assay results published in patent publication US9303045B2, “5-HT3 receptor antagonists” (Takeda Pharmaceutical Company Limited, priority 2013, dated 2016).
Where a name gives a salt, the structure may show the parent alone.

target: 5HT3a receptor expressed in HEK-293T cells (Homo sapiens (Human), UniProt P46098); assay: Inhibition of Ca flux activity of 5HT3 in vitro assay; assay type: cell-based; conditions: calcium flux, 5HT 216 nM, approximate values
Protocol: Inhibition of Ca Flux Activity of 5HT3 In Vitro Assay
The 5HT3 antagonist activity of the compounds of the invention was determined by measuring the ability of the compounds to inhibit the calcium flux activity of […] receptor expressed in HEK-293T cells. HEK-293T cells were transfected with the 5HT3a expression construct using Xtreme Gene 9 (Roche) in 150 mm tissue culture treated plates and incubated for 24 hours at 37° C. Cells were then split and plated at a density of 60K cells/well in poly-lysine coated, black 96-well plates with clear bottoms (BD BioSciences) and incubated overnight at 37° C. Growth media was removed and cells loaded with 200 uL calcium indicator dye in HBSS containing 20 mM HEPES (Calcium 5 Assay kit, Molecular Devices) and incubated at 37° C. for 1 hour. While cells were incubating, the 10× antagonist and agonist/antagonist addition plates were made. For 10× antagonist plate: half log serial dilutions (final concentrations range from 10^−7 through 10^−10 with the bottom well a negative, no ligand control) were made from test compounds in DMSO at a 1000× concentration and then diluted to 10× in HBSS/20 mM HEPES. For addition plate: 5HT was diluted to 100× in HBSS/20 mM HEPES (final concentration in the assay—216 nM) and 15 uL was added to each well of the addition plate, 15 uL of 10× compound was also added to the addition plate, and finally 120 uL of HBSS/20 mM HEPES (for a total of 150 uL). Cells were then removed from the incubator and equilibrated to room temperature for 10 minutes, then 22.5 uL of 10× test compounds were added in triplicate to the plates and incubated at room temperature for 10 minutes (Tropisetron was used as a positive control in every assay). Test plate and addition plate were loaded into the FlexStation III (Molecular Devices), and using the fluidics, 22.5 uL compound additions were made (at t=˜17 seconds), and fluorescence was measured for 90 seconds, reading every 2.2 seconds. Data sets were analyzed as max minus min using Software Max Pro (Molecular Devices). IC50 curves were generated using non-linear regression in GraphPad Prism.

5HT3a receptor expressed in HEK-293T cells, sequence (P46098 24-478): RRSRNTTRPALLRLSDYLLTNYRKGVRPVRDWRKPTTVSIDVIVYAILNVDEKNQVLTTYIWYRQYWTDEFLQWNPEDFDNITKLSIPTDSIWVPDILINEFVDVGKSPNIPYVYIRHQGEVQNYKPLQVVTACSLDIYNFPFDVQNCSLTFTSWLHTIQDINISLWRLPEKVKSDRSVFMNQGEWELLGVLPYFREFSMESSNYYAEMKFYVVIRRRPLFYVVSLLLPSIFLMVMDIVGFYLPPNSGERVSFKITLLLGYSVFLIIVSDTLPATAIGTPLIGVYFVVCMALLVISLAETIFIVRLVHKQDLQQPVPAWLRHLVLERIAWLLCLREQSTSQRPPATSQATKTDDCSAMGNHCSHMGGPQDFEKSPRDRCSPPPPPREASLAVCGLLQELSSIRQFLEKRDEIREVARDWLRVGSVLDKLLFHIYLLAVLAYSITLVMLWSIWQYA

| Compound | IC50 [nM] |
| --- | --- |
| CC(C)S(=O)(=O)n1cc(C(=O)O[C@H]2C[C@H]3COC[C@@H](C2)N3)c2ccccc21 [Example 131, (1R,5S,7S)-3-oxa-9-azabicyclo[3.3.1]nonan-7-yl 1-(isopropylsulfonyl)-1H-indole-3-carboxylate, 2,2,2-trifluoroacetate] | 1.93 |
| CN1[C@@H]2CCC[C@H]1CC(NC(=O)c1cn(S(C)(=O)=O)c3ccc(F)cc13)C2 (stereo partly drawn) [Example 100, 5-fluoro-N-((1R,3R,5S)-9-methyl-9-azabicyclo[3.3.1]nonan-3-yl)-1-(methylsulfonyl)-1H-indole-3-carboxamide, 2,2,2-trifluoroacetate] | 12.8 |
| N#Cc1cccc(-n2cc(C(=O)OC3CC4COCC(C3)N4)c3ccccc32)c1 [Example 172, (1R,5S,7s)-3-oxa-9-azabicyclo[3.3.1]nonan-7-yl 1-(3-cyanophenyl)-1H-indole-3-carboxylate, 2,2,2-trifluoroacetic acid salt] | 2.89 |
| (1R,5S,7s)-9-methyl-3-oxa-9-azabicyclo[3.3.1]nonan-7-yl 1-(6-fluoropyridazin-3-yl)-1H-indole-3-carboxylate [Example 25] | 3.88 |
| CN1C2CCCC1CC(OC(=O)c1cn(CC(F)F)c3ncccc13)C2 [Example 61, (1R,3R,5S)-9-methyl-9-azabicyclo[3.3.1]nonan-3-yl 1-(2,2-difluoroethyl)-1H-pyrrolo[2,3-b]pyridine-3-carboxylate, 2,2,2-trifluoroacetate] | 1 |
| CN1[C@@H]2COC[C@H]1CC(NC(=O)c1cn(C(F)C(F)(F)F)c3ncccc13)C2 (stereo partly drawn) [Example 81, N-((1R,5S,7S)-9-methyl-3-oxa-9-azabicyclo[3.3.1]nonan-7-yl)-1-(1,2,2,2-tetrafluoroethyl)-1H-pyrrolo[2,3-b]pyridine-3-carboxamide, 2,2,2-trifluoroacetate] | 1.44 |
| (1R,3R,5S)-8-methyl-8-azabicyclo[3.2.1]octan-3-yl 3,4-dihydro-2H-[1,3]oxazino[3,2-a]indole-10-carboxylate 2,2,2-trifluoroacetate [Example 19] | 7.72 |
| CN1C2COCC1CC(OC(=O)c1cn(CCF)c3ccc(C#N)cc13)C2 [Example 160, (1R,5S,7s)-9-methyl-3-oxa-9-azabicyclo[3.3.1]nonan-7-yl 5-cyano-1-(2-fluoroethyl)-1H-indole-3-carboxylate, 2,2,2-trifluoroacetic acid salt] | 0.746 |
| CN1[C@@H]2COC[C@H]1C[C@@H](NC(=O)c1cn(-c3cnsc3)c3ccccc13)C2 [Example 144, 1-(isothiazol-4-yl)-N-((1R,5S,7s)-9-methyl-3-oxa-9-azabicyclo[3.3.1]nonan-7-yl)-1H-indole-3-carboxamide, 2,2,2-trifluoroacetic acid salt] | 0.61 |
| O=C(OC1C[C@H]2CC[C@@H](C1)N2)c1cn(CC(F)F)c2ccccc12 (stereo partly drawn) [Example 45, (1R,3R,5S)-8-azabicyclo[3.2.1]octan-3-yl 1-(2,2-difluoroethyl)-1H-indole-3-carboxylate, 2,2,2-trifluoroacetate] | 3.09 |
| CN1[C@@H]2COC[C@H]1CC(NC(=O)c1cn(CC(F)F)c3ccc(F)cc13)C2 (stereo partly drawn) [Example 63, 1-(2,2-difluoroethyl)-5-fluoro-N-((1R,5S,7S)-9-methyl-3-oxa-9-azabicyclo[3.3.1]nonan-7-yl)-1H-indole-3-carboxamide, 2,2,2-trifluoroacetate] | 0.49 |
| (1R,5S,7s)-3-oxa-9- azabicyclo[3.3.1]nonan- 7-yl 1-(isothiazol-3-yl)- 1H-indole-3- carboxamide, 2,2,2- trifluoroacetic acid salt [Example 145] | 2.71 |
| O=C(OC1CC2COCC(C1)N2)c1cn(CC(F)F)c2ncccc12 [Example 101, (1R,5S,7S)-3-oxa-9-azabicyclo[3.3.1]nonan-7-yl 1-(2,2-difluoroethyl)-1H-pyrrolo[2,3-b]pyridine-3-carboxylate, 2,2,2-trifluoroacetate] | > 1000 |
| (1R,5S,7S)-9-methyl-3-oxa-9-azabicyclo[3.3.1]nonan-7-yl 1-(2,2-difluoroethyl)-1H-pyrrolo[2,3-b]pyridine-3-carboxylate 2,2,2-trifluoroacetate [Example 14] | 3.71 |
| CN1C2COCC1CC(NC(=O)c1cn(CC(F)(F)F)c3ccc(F)cc13)C2 [Example 35, 5-fluoro-N-((1R,5S,7S)-9-methyl-3-oxa-9-azabicyclo[3.3.1]nonan-7-yl)-1-(2,2,2-trifluoroethyl)-1H-indole-3-carboxylate, 2,2,2-trifluoroacetate] | 0.54 |
| CN1[C@@H]2COC[C@H]1CC(NC(=O)c1cn(S(C)(=O)=O)c3ccc(F)cc13)C2 (stereo partly drawn) [Example 36, 5-fluoro-N-((1R,5S,7S)-9-methyl-3-oxa-9-azabicyclo[3.3.1]nonan-7-yl)-1-(methylsulfonyl)-1H-indole-3-carboxylate, 2,2,2-trifluoroacetate] | 0.5 |
| CN1[C@@H]2CCC[C@H]1CC(OC(=O)c1cn(CC(F)F)c3ccc(F)cc13)C2 (stereo partly drawn) [Example 60, (1R,3R,5S)-9-methyl-9-azabicyclo[3.3.1]nonan-3-yl 1-(2,2-difluoroethyl)-5-fluoro-1H-indole-3-carboxylate, 2,2,2-trifluoroacetate] | 0.44 |
| (1R,3R,5S)-8-methyl-8-azabicyclo[3.2.1]octan-3-yl 2-chloro-1-(2,2-difluoroethyl)-1H-indole-3-carboxylate 2,2,2-trifluoroacetate [Example 4] | 1.4 |
| O=C(NC1C[C@H]2COC[C@@H](C1)N2)c1cn(CC(F)(F)F)c2ncc(F)cc12 (stereo partly drawn) [Example 105, N-((1R,5S,7S)-3-oxa-9-azabicyclo[3.3.1]nonan-7-yl)-5-fluoro-1-(2,2,2-trifluoroethyl)-1H-pyrrolo[2,3-b]pyridine-3-carboxamide, 2,2,2-trifluoroacetate] | 34.1 |
| CN1[C@@H]2COC[C@H]1C[C@@H](NC(=O)c1cn(-c3cscn3)c3ncccc13)C2 [Example 147, N-((1R,5S,7s)-9-methyl-3-oxa-9-azabicyclo[3.3.1]nonan-7-yl)-1-(thiazol-4-yl)-1H-pyrrolo[2,3-b]pyridine-3-carboxamide, 2,2,2-trifluoroacetic acid salt] | 0.4 |
| CN1[C@@H]2COC[C@H]1CC(OC(=O)c1cn(CC(F)(F)F)c3ncccc13)C2 (stereo partly drawn) [Example 49, (1R,5S,7S)-9-methyl-3-oxa-9-azabicyclo[3.3.1]nonan-7-yl 1-(2,2,2-trifluoroethyl)-1H-pyrrolo[2,3-b]pyridine-3-carboxylate, 2,2,2-trifluoroacetate] | 1.82 |
| CC(C)S(=O)(=O)n1cc(C(=O)NC2CC3COCC(C2)N3C)c2cc(F)ccc21 [Example 93, 5-fluoro-1-(isopropylsulfonyl)-N-((1R,5S,7S)-9-methyl-3-oxa-9-azabicyclo[3.3.1]nonan-7-yl)-1H-indole-3-carboxamide, 2,2,2-trifluoroacetate] | 1.39 |
| CN1[C@@H]2COC[C@H]1CC(NC(=O)c1cn(CC(F)F)c3ccc(F)cc13)C2 (stereo partly drawn) [Example 113, 1-(2,2-difluoroethyl)-5-fluoro-N-((1R,5S,7S)-9-methyl-d3-3-oxa-9-azabicyclo[3.3.1]nonan-7-yl)-1H-indole-3-carboxamide, 2,2,2-trifluoroacetate] | 0.23 |
| CN1[C@@H]2CC[C@H]1CC(OC(=O)c1cn(S(C)(=O)=O)c3ccc(F)cc13)C2 (stereo partly drawn) [Example 86, (1R,3R,5S)-8-methyl-8-azabicyclo[3.2.1]octan-3-yl 5-fluoro-1-(methylsulfonyl)-1H-indole-3-carboxylate, 2,2,2-trifluoroacetate] | 2.48 |
| Cc1c(C(=O)OC2C[C@H]3CC[C@@H](C2)N3C)c2ccccc2n1CC(F)F (stereo partly drawn) [Example 73, (1R,3R,5S)-8-methyl-8-azabicyclo[3.2.1]octan-3-yl 1-(2,2-difluoroethyl)-2-methyl-1H-indole-3-carboxylate, 2,2,2-trifluoroacetate] | 3.15 |
| N#Cc1ccccc1-n1cc(C(=O)O[C@H]2C[C@H]3COC[C@@H](C2)N3)c2ccccc21 [Example 171, (1R,5S,7s)-3-oxa-9-azabicyclo[3.3.1]nonan-7-yl 1-(2-cyanophenyl)-1H-indole-3-carboxylate, 2,2,2-trifluoroacetic acid salt] | 1.11 |
| CN1[C@@H]2CC[C@H]1CC(NC(=O)c1cn(CC(F)F)c3ncccc13)C2 (stereo partly drawn) [Example 76, 1-(2,2-difluoroethyl)-N-((1R,3R,5S)-8-methyl-8-azabicyclo[3.2.1]octan-3-yl)-1H-pyrrolo[2,3-b]pyridine-3-carboxamide, 2,2,2-trifluoroacetate] | 1.22 |
| O=C(O[C@H]1C[C@H]2COC[C@@H](C1)N2)c1cn(-c2cccnn2)c2ccccc12 [Example 136, (1R,5S,7s)-3-oxa-9-azabicyclo[3.3.1]nonan-7-yl 1-(pyridazin-3-yl)-1H-indole-3-carboxylate, 2,2,2-trifluoroacetic acid salt] | 0.914 |
